Test results published in patent US20170137625A1, “ANTHRAQUINONE COMPOUND USED FOR COLOR FILTER OF LCD” (Dow Global Technologies LLC, priority 2014, published 2017).

Tests used:
[1] = Thermal stability of films (chromaticity): ΔE before and after hard baking; format: physicochemical; details: for ΔEab after baking at 230° C. for 1 h: dye in alkaline soluble acrylic resin film on glass, hard baked at 230° C. under air for 1 h, CIE Lab, D65/10
Procedure: 1.15 g of alkaline soluble acrylic resin solution (MIPHOTO RPR4022, supplied from Miwan Commercial Co., Ltd., 40 wt % of solid content in methyl 3-methoxypropionate) was mixed with 1.73 g of PGMEA (60 wt %). 0.189 g of Dye 1 was mixed in the alkaline soluble resin/PGMEA solution and stirred for 2 hours at room temperature using a shaker. The solution was filtered through a 0.45 μm PTFE filter to remove large particles. Then the filtered solution was spin coated onto a clean glass substrate with 400 rpm spin speed for 18 seconds. The obtained film was first dried at 90° C. under air atmosphere for 30 minutes, and then hard baked at 230° C. under air atmosphere for 1 hour. The CIE values (xyY values and lab values) and the transmittance were measured before and after the hard bake.
(4) Thermal Stability of Films (Chromaticity):
The wet film after spin coating is dried in oven at 90° C. for 30 minutes and then soft baked at 150° C. for 15 minutes. The chromaticity coordinates (L, a, b) are recorded with UltraScan Pro (Hunterlab) colorimeter. D65/10 light source is used and results are based on CIE Lab coordinates. After that the film is hard baked at target temperature (230° C.) for 1 hour and the new chromaticity coordinates (L′, a′, b′) are recorded with the method above. The thermal stability of a film is indicated by the difference of chromaticity coordinate before and after hard baking represented by the following formula;
ΔE=√{square root over ((L−L′)^2+(a−a′)^2+(b−b′)^2)}

[2] = Solubility in PGMEA; format: physicochemical; details: for Solubility in PGMEA: solvent PGMEA (propylene glycol monomethyl ether acetate)
[3] = comparison in words, referring to Table 1

ΔEab after baking at 230° C. for 1 h [1] | Solubility in PGMEA [2] [wt %] | thermal stability compared with the Comparative Examples [1, 3] | solubility in PEGMEA compared with the Comparative Examples [2, 3] | Compound
6.8 | 3.0 | – | – | Cc1cc(C)c(Nc2ccc(Nc3c(C)cc(O)cc3C)c3c2C(=O)c2ccccc2C3=O)c(C)c1 [(1-((4-hydroxy-2,6-dimethylphenyl)amino)-4-(mesitylamino)-anthraquinone]
2.1 | 6.2 | significant improvement | significant improvement | C=CCN(CC=C)C(=O)COc1cc(C)c(Nc2ccc(Nc3c(C)cc(C)cc3C)c3c2C(=O)c2ccccc2C3=O)c(C)c1 [Dye 1, N,N-diallyl-acetamide modified anthraquinone]
33 (color almost | 1.9 | – | – | CC(C)Nc1ccc(NC(C)C)c2c1C(=O)c1ccccc1C2=O [Solvent Blue 36]
7.9 | 0.6 | – | – | Cc1cc(C)c(Nc2ccc(Nc3c(C)cc(C)cc3C)c3c2C(=O)c2ccccc2C3=O)c(C)c1 [Solvent Blue 104, 1,4-bis(mesitylamino)anthraquinone]
